Test results published in US12427149B2, “Methods and compositions for the prevention and treatment of hearing loss” (Ting Therapeutics, Inc., priority 2019, dated 2025).
Where two headings read alike, the source gives them in different places.

What was measured:
[1] = test system: HEI-OC1 cells; conditions: CELLTITER-GLO
[2] = test system: HEI-OC1 cells; experiment: Protection against cisplatin-induced Caspase-3/7 activity in HEI-OC1 cells (Caspase-Glo 3/7); assay type: cell-based, mouse; conditions: for IC50: Mus musculus, HEI-OC1; for protection against cisplatin-induced cell death in HEI-OC1 (in words): kinase inhibitor library screen
Procedure: A screen of a library composed of 75 kinase inhibitors was conducted to identify inhibitors that protect against cisplatin-induced hair cell loss.

[3] = test system: mouse cochlear explants; experiment: Cisplatin-induced hair cell loss in mouse cochlear explants (outer hair cell count, phalloidin staining); conditions: for IC50: Mus musculus; for protection against cisplatin-induced hair cell loss/death in mouse cochlear explants (in words): cisplatin 150 μM
Procedure: Dab alone or Dab added 1 h before cisplatin (150 μM) to P3 FVB cochlear explants for 24 h.
Now referring to FIG. 9, testing of a B-Raf/MEK1/2 inhibitor combination in mouse cochlear explant cultures. Compounds alone or combination of the compounds were added 1 h before cisplatin (150 μM) to P3 FVB cochlear explants for 24 h, and number of outer hair cells per 160 μm of middle turn regions of the cochlea were counted by phalloidin staining, mean±SEM, P=*<0.05, P=***<0.001, compared to cisplatin alone by unpaired two-tailed Student's t-test.
Methods of using a zebrafish model system to evaluate small molecules capable of decreasing, inhibiting or preventing sensory hair cell damage or death are provided. Zebrafish are an advantageous animal model system for studying causes and prevention of hearing loss in comparison to mammalian animal model systems. The relative inaccessibility of hair cells in mammalian organisms limits their use as a high throughput model for identifying compounds that would prevent toxin mediated and other forms of hair cell death from occurring. The lateral line neuromast hair cells of zebrafish (Danio rerio) are structurally and functionally similar to mammalian sensory hair cells. […] Compounds alone or compounds added 1 h before cisplatin (150 μM) to P3 FVB cochlear explants for 24 h, and number of outer hair cells per 160 μm of middle turn regions of the cochlea were counted by phalloidin staining, mean±SEM, P=*<0.05, P=**<0.005, ***P<0.0005 compared to cisplatin alone by unpaired two-tailed Student's t-test.
Compounds alone (purple bar) or combination of the compounds were added 1 h before cisplatin (150 μM) to P3 FVB cochlear explants for 24 hrs, and number of outer hair cells per 160 μm of middle turn regions of the cochlea were counted by phalloidin staining, mean±SEM, P=*<0.05, P=**<0.005, compared to cisplatin alone by unpaired two-tailed Student's t-test.

[4] = test system: zebrafish lateral line neuromast hair cells; experiment: Protection of zebrafish lateral line neuromast hair cells in vivo against cisplatin; parameters: species or system zebrafish (Danio rerio)
Procedure: Lateral line neuromasts of zebrafish were stained and number of hair cells per neuromast were counted. Cisplatin (CP): 400 μM. *, **, and ***: P<0.05, 0.01, and 0.001 compared to CP alone.
Protection of zebrafish lateral line neuromast hair cells in vivo. […] After the treatment, animals were transferred to fresh fish water to recover for 1 hour and then fixed and immunostained for GFP and otoferlin. Quantification of the number of hair cells per neuromast after the different treatments represented as mean+/−SEM. Student's t test was performed, *p<0.05, **p<0.01, ***p<0.001, compared versus CP 400 μM. Neuromasts inspected: SO3 (supraorbital line neuromast) and O1-2 (otic line neuromasts) from at least 3 different animals.

[5] = test system: B-RAF, ERK and MEK; experiment: Western blots of cisplatin activated B-Raf signaling cascade in HEI-OC1 cells; assay type: cell-based, mouse; conditions: 50 μM cisplatin, 1 hour; dose dependent
Text: Western blots show representative changes of each signaling molecule upon cisplatin and Dab treatment at specific doses (5B) and times (5A).

[6] = Table 1, read-out: HEI-OC1 cell line IC50
[7] = read-out: IC50, protection against cisplatin-induced hair cell loss in mouse cochlear explants
[8] = read-out: Mouse cochlear explant IC50

`FC(F)(F)c1ccc(/C=C/c2nc(COc3ccc(CCCCn4ccnn4)cc3)co2)cc1` [Mubritinib] was tested, and the “LD50 in HEI-OC1 cells” value [1] was greater than 55 µM, the IC50 [2, 6] was 39 nM and the IC50 ([2]; read-out: IC50, protection against cisplatin-induced Caspase-3/7 activity in HEI-OC1 cells) was 4 nM. The “protection against cisplatin-induced cell death in HEI-OC1 (in words)” value (“protection … in HEI-OC1 (in words)” for short) [2] was “potently protected”, the “LD50 in mouse cochlear explants” value ([3]; FVB, mouse) was greater than 0.5 µM and the IC50 [3, 7] was 2.5 nM. For the same compound, the IC50 [3, 8] was 2 nM and the “protection against cisplatin-induced hair cell loss/death in mouse cochlear explants (in words)” value [3] was “potently protected”.
For `O=C(Nc1cccc(Cl)c1)Nc1ncc(CCNc2ncnc3ccsc23)s1` [SNS-314], the IC50 [2, 6] was 7490 nM, the “protection … in HEI-OC1 (in words)” value [2] was “potently protected” and the IC50 [3, 8] was 50 nM. The “protection against cisplatin-induced hair cell loss/death in mouse cochlear explants (in words)” value [3] was “protected” and the “protection against cisplatin-induced hair cell loss/death in mouse cochlear explants (in words)” value ([3]; listed as SNS314) was “potently protected”.
`CC1(COc2ccc3c(c2)ncn3-c2ccc3cccc(N4CCC(N)CC4)c3n2)COC1` [Crenolanib] was tested, and the IC50 [2, 6] was 2400 nM, the “protection … in HEI-OC1 (in words)” value [2] was “potently protected” and the IC50 [3, 8] was 350 nM. The “protection against cisplatin-induced hair cell loss/death in mouse cochlear explants (in words)” value ([3]; listed as CRENOLANIB) was “potently protected” and the “protection against cisplatin-induced hair cell loss/death in mouse cochlear explants (in words)” value ([3]; listed as crenolanib) was “protected”.
`CCOc1cc2ncc(C#N)c(Nc3ccc(F)c(Cl)c3)c2cc1NC(=O)/C=C/CN(C)C` [Pelitinib] was tested, and the IC50 ([2]; cisplatin-Caspase-Glo 3/7, read-out: IC50, protection against cisplatin-induced Caspase-3/7 activity in HEI-OC1 cells) was 600 nM and the “protection of outer hair cells against cisplatin-induced hair cell loss in mouse cochlear explants” value ([3]; 1 hour pre-incubation, N=3) was 49%.
`CCCS(=O)(=O)Nc1ccc(F)c(C(=O)c2c[nH]c3ncc(-c4ccc(Cl)cc4)cc23)c1F` [Vemurafenib] was tested, and the “LD50 in mouse cochlear explants” value ([3]; FVB, mouse, 24 h) was “greater than 3 μM” and the IC50 [3, 7] was roughly 200 nM.
In the case of `Cn1c(Nc2ccc(C(F)(F)F)cc2)nc2cc(Oc3ccnc(-c4ncc(C(F)(F)F)[nH]4)c3)ccc21` [RAF-265], the “LD50 in mouse cochlear explants” value ([3]; FVB, mouse, 24 h) is reported as “greater than 3 μM”, the IC50 [3, 7] is reported as 20 nM and the “protection against cisplatin-induced hair cell loss/death in mouse cochlear explants (in words)” value [3] is reported as “protected”.
`CC(C)(C)c1nc(-c2cccc(NS(=O)(=O)c3c(F)cccc3F)c2F)c(-c2ccnc(N)n2)s1` [Dabrafenib] was tested, and the IC50 [2, 6] was 13500 nM, the “protection … in HEI-OC1 (in words)” value [2] was “potently protected” and the “LD50 in mouse cochlear explants” value ([3]; FVB, mouse, 24 h) was 13.47 µM. For the same compound, the IC50 [3, 7] was 30 nM, the IC50 [3, 8] was 30 nM and the “protection against cisplatin-induced hair cell loss/death in mouse cochlear explants (in words)” value [3] was “potently protected”. For the same compound, the “Zebrafish cisplatin protection at concentration” value ([4]; FIG. 11A) was 0.100 µM, the Zebrafish protection ([4]; Table 1, protective concentration, cisplatin 400 μM) was 0.100 µM and the “effect on cisplatin-mediated activation of B-RAF, ERK and MEK (in words)” value [5] was “mitigates”.
With `CC(=O)Nc1cccc(-n2c(=O)n(C3CC3)c(=O)c3c(Nc4ccc(I)cc4F)n(C)c(=O)c(C)c32)c1` [Trametinib] the “LD50 in mouse cochlear explants” value [3] was “greater than 3 μM” and the IC50 [3, 7] was 50 nM.
For `CCCS(=O)(=O)Nc1ccc(F)c(C(=O)c2c[nH]c3ncc(Cl)cc23)c1F` [PLX-4750], the IC50 [3, 7] was 200 nM and the “protection against cisplatin-induced hair cell loss/death in mouse cochlear explants (in words)” value [3] was “protected”.
